Results from US9547009B2, “Benzocyclooctyne compounds and uses thereof” (Academia Sinica, priority 2012, dated 2017).
Blank lines part the entries; values can stand above or below the compound they belong to.

Columns and labels:
[1] = Absorption/fluorescence spectroscopy and quantum yield under simulated physiological conditions (10% DMSO in PBS); type: physicochemical; conditions: excitation at 330 nm, PBS buffer containing 10% DMSO, pH 7.4, 37° C.; for quantum yield Φf: quinine sulfate standard
Procedure: All spectroscopic measurements of Compound 1 and the triazole products 1-A and 1-B were performed in a mixture of 10% DMSO in PBS buffer (FIG. 11). UV-vis spectra and fluorescence spectra were recorded on a Molecular Devices Spectramax M5 spectrometer. For each experiment, the absorbance spectra were measured within an absorbance range of 0.07 to 0.7 (l=[…]). Quantum yields were determined from the slope of the integrated fluorescence emission between 360 and 550 nm (excitation at 330 nm) versus absorbance using quinine sulfate (Φf=0.54±0.0 3)[^S3] as fluorescence standard. The quantum yield was calculated as an average of 4 points according to the following equation: Φsample=Φstandard(Astandard/Asample)(Fsample/Fstandard)(nsample/nstandard)^2 where “Φ” is the quantum yield, “A” is the absorbance at the excitation frequency, “F” is the area under the emission curve, and “n” is the refractive index of the solvent.
Formation of triazoles 1-A and 1-B were accompanied by a significant increase in fluorescence intensity with a large Stokes shift into a standard range for coumarin emission (FIG. 8a).

[2] = Photophysical properties of Compound 1 and its benzyl azide triazole regioisomers 3a/3b; type: physicochemical; conditions: for fluorescence emission λmax: upon irradiation; for extinction coefficient relative to Compound 1: at λmax 330 nm
Text: In one embodiment, Compound 1 reacted with benzyl azide in ethanol/water (1:1) in the absence of copper(I) catalyst to afford the cycloaddition product as a mixture of two triazole reigoisomers 3a and 3b. These two trizaole isomers were separated, and their photophysical properties were investigated, respectively. […] The quantum yields of triazole compounds 3a (Φf=0.23) and 3b (Φf=0.22) were 20-fold higher than Compound 1 (Φf=0.011).

[3] = Time course of ligation with ManNAz by fluorescence spectroscopy; conditions: emission 435 nm, excitation 330 nm; 10% DMSO in PBS, 37° C.
Procedure: To probe the SPAAC reaction under the conditions that would be more typical for biomolecule labeling, the fluorescence response and time course for the reaction of Compound 1 with N-azidoacetylmannosamine (ManNAz) were investigated.
A solution of Compound 1 ([…]) and N-azidoacetylmannosamine (15 μmol) in a mixture of 10% DMSO in PBS buffer (2.5 mL) was incubated at 37° C. The fluorescence emission intensity at 435 nm upon excitation at 330 nm was monitored in 5 min intervals. For each point the fluorescence intensity was measured over a period of 5 sec and averaged over a total of 3 points. In a control experiment the same conditions were used except that N-acetylmannosamine (15 μmol) was added to the solution.

[4] = SPAAC kinetics with N-azidoacetylmannosamine monitored by 1H-NMR; conditions: CD3OD/D2O (5:1, v/v), equimolar 20 mM, 25° C.
Procedure: (§1) Experiment II: Compound 1 and N-azidoacetylmannosamine were predissolved in CD3OD/D2O (5:1, v/v), and then mixed at equimolar concentration of 20 mM. The reaction was monitored by ^1H-NMR analysis over a period of 1 h. The concentration of each component was determined, based on the concentration of initial compound 1, by integration at multiple chemical shifts in the ^1H-NMR spectrum. By plotting 1/[1](M^−1) vs. time (sec), a second order rate constant in unit of M^−1s^−1 was determined using linear regression analysis. This procedure was repeated 3 times with a concentrated of 20 mM to afford a rate constant of 0.010 M^−1s^−1 at 25° C. (FIG. 11).

CL1-5 cells = assay: Fluorescence labeling of azido-glycoconjugates in live cells (time-lapse and confocal microscopy); type: cell-based
Procedure: To observe the fluorescence labeled azido-glycoconjugates in cells, CL1-5 cells (a lung cancer cell line) were seeded on chamber slide (2.5×10^4 cells/0.5 mL per wells) and incubated in culture medium (RPMI-1640 supplemented with 10% FBS, 100 U/mL penicillin, 100 μg/mL streptomycin, 1 mM L-glutamine and 1 mM sodium pyruvate) with either 200 μM control sugar (peracetylated N-acetylmannosamine, Ac4ManNAc) or azido-sugar (peracetylated azido-N-acetylmannosamine, Ac4ManNAz) for 3 days.
For Time-lapse imaging of live cells, experiments were carried out using a confocal microscope (TCS-SP5-MP-SMD, Leica) equipped with an incubator to keep the cells in culture conditions. Prewashed cells were incubated with 100 μM compound 1 in PBS buffer with 10% DMSO and images of cell were acquired at 450 nm emission and in 5-min intervals.
For comparing the localization of azido-glycans, probe-labeled cells were washed with PBS, fixed with 3% paraformaldehyde in PBS at room temperature for 20 min, permeablized with 0.2% Triton X-100 in PBS at room temperature for 20 min, and blocked with 3% bovine serum albumin in PBS at room temperature for 30 min. Cells were stained with fluorescein conjugated WGA lectin for Golgi, and propidium iodide (PI) for nucleus (FIG. 12).
Performance of Compound 1 in live cell imaging was investigated. Highly invasive lung cancer cells, CL1-5, were cultured in the presence of peracetylated azido-N-acetylmannosamine (Ac4ManNAz, 200 μM) for 3 days to metabolically produce the azido-sialic acid expressed cells. As a negative control, CL1-5 cells were grown in the presence of peracetylated N-acetylmannosamine (Ac4ManNAc, 200 μM). A time course experiment was conducted by treating 100 μM of Compound 1 (once) and conducted by exposing the cells at 5-min intervals under no-wash and no-fixation conditions (FIG. 8 and FIG. 12). […] Furthermore, the localization of azido-containing glycoconjugates in living cells was visualized by confocal microscopy. The cells labeled by Compound 1 were subsequently stained with fluorescein-conjugated WGA lectin (a Golgi marker) and propidium iodide (PI, a nucleus marker).

[5] = SPAAC kinetics with benzyl azide monitored by 1H-NMR; conditions: CD3CN, 25° C.
Procedure: The cycloaddition of compound 1 with benzyl azide was a second-order reaction. […] The second-order rate constant (k) was determined to be 0.015 M^−1s^−1 at 25° C. […] (Agard, et al., J. Am. Chem. Soc. 2004, 126, 15046; Ning, et al., Angew. Chem. Int. Ed. 2008, 47, 2253).
as §1, with “I:” for “II:”, “benzyl azide” for “N-azidoacetylmannosamine”, “CD3CN,” for “CD3OD/D2O (5:1, v/v),”, “0.012” for “0.010”, “4B).” for “11).”

[6] = Photophysical properties of alkynyl coumarin-indolium compound C and its CuAAC triazole product 18; type: physicochemical; conditions: 18: in aqueous solution; for extinction coefficient ε: at λmax 500 nm

Compound: O=c1ccc2cc3c(cc2o1)C#CCCCC3 [Compound 1, 10,11-Dehydro-6,7,8,9-tetrahydro-cycloocta[g]chromen-2-one]
- fluorescence emission band [1]: 405 nm
- quantum yield Φf [1]: 0.011
- absorption band λmax [2]: 330 nm
- quantum yield Φf [2]: 0.011
- fluorescence emission λmax [2]: 400 nm
- time until fluorescence intensity reached a plateau [3]: less than 1 h
- second order rate constant [4]: 0.010 M⁻¹ s⁻¹
- fluorescence of Ac4ManNAz treated cells (CL1-5 cells; 100 μM probe, 5-min intervals, no-wash, no-fixation): time-dependent increase of fluorescence intensity
- fluorescence of control cells (background labeling) (CL1-5 cells; 100 μM probe, CL1-5 cells grown with 200 μM Ac4ManNAc): almost no fluorescence staining
- time until cell labeling complete (CL1-5 cells; 100 μM probe, CL1-5 cells pre-treated with 200 μM Ac4ManNAz for 3 days, no-wash, no-fixation): 1.5 h
- localization of probe-labeled sialylated glycans (CL1-5 cells; confocal microscopy, co-staining with fluorescein-WGA lectin (Golgi) and propidium iodide (nucleus)): partially co-localized with Golgi apparatus staining, but not with nucleus staining
- second order rate constant ([5]; benzyl azide, equimolar 20 mM, repeated 3 times): 0.012 M⁻¹ s⁻¹
- second-order rate constant (k) ([5]; cycloaddition with benzyl azide, 19 mM): 0.015 M⁻¹ s⁻¹

Compound: O=c1ccc2cc3c(cc2o1)-c1nnn(Cc2ccccc2)c1CCCC3 [Compound 1-A, 10-Benzyl-6,7,8,9-tetrahydro-cyclooctatriazolo[5,4-g]chromen-2 (2H)-one]
- fluorescence emission band [1]: 435 nm
- quantum yield Φf [1]: 0.23

Compound: O=C(Cn1nnc2c1CCCCc1cc3ccc(=O)oc3cc1-2)NC1C(O)OC(CO)[C@@H](O)C1O (stereo partly drawn) [Compound 1-B, N-[2-(11-Oxo-4,6,7,11-tetrahydrochromeno[7′,6′:3,4]cycloocta[1,2-d][1,2,3]triazol-3 (5H)-yl)]acetamido-2-deoxy-α,β-D-mannopyranose]
- fluorescence emission band [1]: 435 nm
- quantum yield Φf [1]: 0.21

Compound: CC1(C)C(/C=C/c2cc3ccc(-c4cn(Cc5ccccc5)nn4)cc3oc2=O)=[N+](CCCCS(=O)(=O)[O-])c2ccccc21 [Compound 18]
- absorption λmax [6]: 500 nm
- fluorescence quantum yield Φf [6]: 0.56
- fluorescence λmax [6]: 520 nm
- extinction coefficient ε [6]: 32,000 M^−1 cm^−1

Compound: C#Cc1ccc2cc(/C=C/C3=[N+](CCCCS(=O)(=O)[O-])c4ccccc4C3(C)C)c(=O)oc2c1 [Compound C, (E)-7-ethynyl-3-[N-(4-sulfonatobutyl)-3,3-dimethyl-3H-indolium-2-yl]ethenyl-2H-chromen-2-one]
- absorption λmax [6]: 500 nm
- fluorescence quantum yield Φf [6]: 0.017
- fluorescence λmax [6]: 515 nm
- extinction coefficient ε [6]: 8,600 M^−1 cm^−1

The next lines start with the values.

- absorption band λmax [2]: 330 nm
- quantum yield relative to Compound 1 [2]: 20 fold
- quantum yield Φf [2]: 0.23
- extinction coefficient relative to Compound 1 [2]: ~2.5 fold
- fluorescence emission λmax [2]: 400 nm
Compound: O=c1ccc2cc3c(cc2o1)-c1nnn(Cc2ccccc2)c1CCCC3 [Compound 3a]

- absorption band λmax [2]: 330 nm
- quantum yield relative to Compound 1 [2]: 20 fold
- quantum yield Φf [2]: 0.22
- extinction coefficient relative to Compound 1 [2]: ~2.5 fold
- fluorescence emission λmax [2]: 400 nm
Compound: O=c1ccc2cc3c(cc2o1)-c1c(nnn1Cc1ccccc1)CCCC3 [Compound 3b]
